These results are taken from US20030170181A1, “Method for preventing abuse of methylphenidate” (priority 1999, published 2003).

Data set [1] relates to males with ADHD. Kind of data set: Combined pharmacokinetic/pharmacodynamic study of dose regimens of methylphenidate on activity and attention (OPTAX measures). Type of data set: in vivo, human. The following applies: pulsatile dosing schedule 2 (PD2): 0.4, 0.4, 0.2 mg/kg at 0, 240, 480 min; compared with CD1, CD2, PD1; twelve-hour day. From the text: Combined pharmacokinetic/pharmacodynamic studies of methylphenidate using different dosage regiments were designed to determine if regimens that produced stable or rising methylphenidate levels had benefits, or if fluctuating levels were necessary to prevent rapid development of tolerance (tachyphylaxis). The experimental subjects were a group of seventy-three males with ADHD recruited from the general population through a newspaper advertisement. Each subject was between the ages of 9 to 12, was objectively hyperactive, and responded positively to methylphenidate. Hyperactivity levels of each boy were determined through OPTAX™ measures, a clinical tool that provides high-resolution assessment of movement patterns during performance of a novel, monotonous, yet challenging cognitive vigilance task. Through the OPTAX™ measures, it is possible to identify differences between drug regimens based solely on dosage schedule, while holding total daily dose constant. Of the 73 original boys, thirteen were excluded based on lack of symptoms by parent interview or on lack of objective hyperactivity greater than 25% over controls on OPTAX™ measures. […]
The double blind parallel group study evaluated the efficacy of methylphenidate for the treatment of ADHD when given in a near continuous amount throughout the day and in pulsatile or fluctuating doses throughout the day. […]

For data set [2] the following is noted: cited from earlier work.
A short description of data set [3]: Pharmacokinetics of d-threo and l-threo methylphenidate in plasma after intravenous administration of 10 mg racemic methylphenidate. The following applies: for CL / MRT / Vdss / t½ / clearance / Vd / half-life: plasma, IV 10 mg racemic methylphenidate; for clearance / Vd / half-life: male, human, iv, 10 mg; for clearance: CL; for Vd: Vdss; for half-life: t½; for plasma levels of d-MPH versus l-MPH: methylphenidate administered intravenously, up to 1.5 hours post dose. The procedure:
Eleven healthy male subjects were administered 10 mg of racemic methylphenidate (Ritalin®) by intravenous (IV) administration and 40 mg of racemic methylphenidate (Ritalin®) by immediate release (IR) oral administration.

Data set [4] is described as follows: Pharmacokinetics of d-threo and l-threo methylphenidate in plasma after oral administration of 40 mg immediate release racemic methylphenidate. Type of data set: in vivo, human. The following applies: for fraction metabolized / bioavailability: after oral administration of commercially available racemic methylphenidate; for Cmax / Tmax / t½ / bioavailability / half-life: plasma; for Cmax / Tmax / t½ / half-life: oral 40 mg immediate release methylphenidate; for bioavailability: read-out: bioavailability in blood plasma; for half-life: read-out: t½ (converted).

[5] abbreviates: racemic d,l-threo methylphenidate.
The mark [6] stands for this setting: individual subjects 1-11, listed as d.
Setting [7] is: male, human, po, 40 mg, mean of 11 subjects, read-out: Cmax.
[8] abbreviates: male, human, po, 40 mg, mean of 11 subjects, read-out: Tmax.
The mark [9] stands for this setting: male, human, po, 40 mg, mean of 11 subjects.
[10] abbreviates: individual subjects 1-11, listed as l.

Values joined by “and” are separate entries in the source; they are usually repeats but may differ in a detail not shown here. Identical values can stand only once. Like-named read-outs stand apart in the source and are kept apart here.

On to `COC(=O)C(c1ccccc1)C1CCCCN1` (racemic) [methylphenidate, α-phenyl-2-piperidine-acetic acid methyl ester], for which, in data set [1], the improvement in activity entry was “most consistent improvement” and the improvement in attention entry is “most consistent improvement”. For the same compound, in data set [2] (after oral administration), the “time of maximum drug concentration” value is “about two”. For the same compound, in data set [2] (setting [5]), the duration of action result is “one to four” and the pharmacokinetic elimination half-life entry is listed as “two to three”.
For `COC(=O)[C@H](c1ccccc1)[C@H]1CCCCN1` [d-MPH, d-threo-methylphenidate], in data set [3] (setting [6]), the CL is 0.32 L/kg · h^−1 and 0.45 L/kg · h^−1 and 0.33 L/kg · h^−1 and 0.28 L/kg · h^−1 and 0.53 L/kg · h^−1 and 0.20 L/kg · h^−1 and 0.63 L/kg · h^−1 and 0.34 L/kg · h^−1 and 0.44 L/kg · h^−1 and 0.41 L/kg · h^−1 and 0.42 L/kg · h^−1; the MRT is 6.49 H and 4.63 H and 5.23 H and 5.75 H and 6.25 H and 4.68 H and 6.79 H and 5.86 H and 7.90 H and 9.44 H and 8.80 H; the Vdss is 2.09 L/kg and 2.10 L/kg and 1.73 L/kg and 1.59 L/kg and 3.28 L/kg and 0.92 L/kg and 4.27 L/kg and 2.01 L/kg and 3.51 L/kg and 3.91 L/kg and 3.68 L/kg; the t½ was 4.88 h and 4.81 h and 4.17 h and 5.38 h and 6.65 h and 3.97 h and 6.93 h and 4.65 h and 6.80 h and 8.68 h and 8.62 h. In data set [3] (mean of 11 subjects), the clearance was 6.67 mL/min/kg, the Vd is 2.65 L/kg, the half-life was 5.96 h and the MRT worked out at 6.53 H. Further, in data set [3], the “plasma levels of d-MPH versus l-MPH” value is on record as “approximately equivalent plasma levels”. Besides, the fraction metabolized result in data set [4] is “approximately 78%”. In addition, in data set [4] (setting [6]), the Cmax was 12.42 ng/mL and 16.49 ng/mL and 13.81 ng/mL and 22.02 ng/mL and 18.52 ng/mL and 24.54 ng/mL and 22.48 ng/mL and 18.25 ng/mL and 22.91 ng/mL and 13.24 ng/mL; the Tmax is 2.0 h and 3.0 h and 1.0 h and 4.0 h; the t½ was 5.44 h and 6.67 h and 4.44 h and 5.83 h and 4.14 h and 6.22 h and 4.81 h and 6.31 h and 6.09 h and 5.29 h and 8.38 h. Also, the bioavailability in data set [4] (male, human, 40 mg) was approximately 22%. In addition, the Cmax in data set [4] (male, human, po, 40 mg, individual subjects 1-11, read-out: Cmax) is 14.7 ng/mL. The Cmax in data set [4] (setting [7]) is 18.1 ng/mL. Besides, in data set [4] (setting [8]), the Tmax came to 2.4 h. In addition, in data set [4] (setting [9]), the half-life was 5.69 h.
Consider `COC(=O)[C@@H](c1ccccc1)[C@@H]1CCCCN1` [l-MPH, l-threo methylphenidate], for which, in data set [3] (setting [10]), the CL was 0.56 L/kg · h^−1 and 0.82 L/kg · h^−1 and 0.59 L/kg · h^−1 and 0.41 L/kg · h^−1 and 1.05 L/kg · h^−1 and 0.26 L/kg · h^−1 and 0.89 L/kg · h^−1 and 0.49 L/kg · h^−1 and 0.78 L/kg · h^−1 and 1.11 L/kg · h^−1 and 1.02 L/kg · h^−1; the MRT was 2.28 H and 2.02 H and 2.37 H and 2.63 H and 2.12 H and 2.50 H and 3.34 H and 1.42 H and 3.03 H and 2.84 H; the Vdss was 1.27 L/kg and 1.86 L/kg and 1.19 L/kg and 0.97 L/kg and 2.77 L/kg and 0.56 L/kg and 2.23 L/kg and 1.63 L/kg and 1.03 L/kg and 3.36 L/kg and 2.89 L/kg; the t½ was 2.08 h and 4.19 h and 2.63 h and 3.57 h and 5.11 h and 2.93 h and 2.21 h and 3.47 h and 4.06 h and 5.23 h. In data set [3] (mean of 11 subjects), this compound gave a clearance of 12.2 mL/min/kg, a Vd of 1.8 L/kg, a half-life of 3.61 h and an MRT of 2.44 H. For the same compound, in data set [3], the “plasma levels of d-MPH versus l-MPH” value is given as “approximately equivalent plasma levels”. Besides, the fraction metabolized entry in data set [4] is given as “approximately 95%”. Besides, in data set [4] (setting [10]), the Cmax was 4.23 ng/mL and 2.49 ng/mL and 3.26 ng/mL and 1.59 ng/mL and 3.61 ng/mL and 1.49 ng/mL and 2.88 ng/mL and 4.01 ng/mL and 2.27 ng/mL and 3.03 ng/mL and 3.95 ng/mL; the Tmax is 2.0 h and 3.0 h and 1.0 h and 1.5 h and 4.0 h; the t½ is 4.61 h and 2.48 h and 4.06 h and 3.80 h and 3.09 h and 3.91 h and 4.24 h and 3.84 h and 3.55 h and 4.23 h and 5.41 h. Further, the bioavailability in data set [4] (male, human, 40 mg) was 5%. The Cmax in data set [4] (setting [7]) amounted to 2.98 ng/mL. Moreover, the time of peak concentration (Tmax) in data set [4] (setting [8]) came to 2.2 h. Moreover, the half-life in data set [4] (setting [9]) was 3.93 h.
